Test: xn = mol fraction of the nth substance listed

Clc1cccc2ccccc12 + Cc1ccc(C)cc1
viscosity [mPa·s], 101.33 kPa
Conditions	x1 = 0.0966	x1 = 0.1961	x1 = 0.2964	x1 = 0.3991	x1 = 0.4981	x1 = 0.597	x1 = 0.7003	x1 = 0.7974	x1 = 0.8991
298.15 K	0.635	0.737	0.847	1.002	1.16	1.36	1.614	1.899	2.294
303.15 K	0.596	0.687	0.789	0.926	1.074	1.25	1.475	1.723	2.072
308.15 K	0.562	0.644	0.738	0.863	0.997	1.158	1.357	1.576	1.882

Clc1ccccc1 + Cc1ccc(C)cc1
101 kPa
Conditions	viscosity [mPa·s]
293.15 K, x1 = 0.1144	0.598
293.15 K, x1 = 0.2316	0.621
293.15 K, x1 = 0.337	0.641
293.15 K, x1 = 0.4432	0.657
293.15 K, x1 = 0.5417	0.673
293.15 K, x1 = 0.6319	0.687
293.15 K, x1 = 0.7398	0.706
293.15 K, x1 = 0.8385	0.722
293.15 K, x1 = 0.9124	0.734
298.15 K, x1 = 0.1363	0.57
298.15 K, x1 = 0.2224	0.585
298.15 K, x1 = 0.3453	0.608
298.15 K, x1 = 0.4555	0.625
298.15 K, x1 = 0.5832	0.645
298.15 K, x1 = 0.6956	0.667
298.15 K, x1 = 0.7881	0.679
298.15 K, x1 = 0.9065	0.695
303.15 K, x1 = 0.1144	0.534
303.15 K, x1 = 0.2318	0.55
303.15 K, x1 = 0.3419	0.572
303.15 K, x1 = 0.4624	0.587
303.15 K, x1 = 0.5653	0.602
303.15 K, x1 = 0.6803	0.615
303.15 K, x1 = 0.7947	0.635
303.15 K, x1 = 0.9082	0.649

Clc1ccccc1 + Cc1cccc(C)c1
101 kPa
Conditions	viscosity [mPa·s]
293.15 K, x1 = 0.1317	0.622
293.15 K, x1 = 0.2304	0.64
293.15 K, x1 = 0.3342	0.658
293.15 K, x1 = 0.4457	0.675
293.15 K, x1 = 0.5734	0.692
293.15 K, x1 = 0.6411	0.7
293.15 K, x1 = 0.7297	0.715
293.15 K, x1 = 0.8241	0.725
293.15 K, x1 = 0.9089	0.737
298.15 K, x1 = 0.115	0.587
298.15 K, x1 = 0.2331	0.605
298.15 K, x1 = 0.3319	0.621
298.15 K, x1 = 0.465	0.641
298.15 K, x1 = 0.565	0.655
298.15 K, x1 = 0.6929	0.671
298.15 K, x1 = 0.7812	0.685
298.15 K, x1 = 0.9072	0.697
303.15 K, x1 = 0.1144	0.55
303.15 K, x1 = 0.2301	0.571
303.15 K, x1 = 0.3415	0.585
303.15 K, x1 = 0.4598	0.605
303.15 K, x1 = 0.562	0.615
303.15 K, x1 = 0.6931	0.63
303.15 K, x1 = 0.8136	0.645
303.15 K, x1 = 0.904	0.651
308.15 K, x2 = 0.0886	0.661
308.15 K, x2 = 0.2076	0.6411
308.15 K, x2 = 0.3076	0.6254
308.15 K, x2 = 0.4147	0.6081
308.15 K, x2 = 0.5146	0.5927
308.15 K, x2 = 0.6138	0.578
308.15 K, x2 = 0.715	0.562
308.15 K, x2 = 0.8146	0.5474
308.15 K, x2 = 0.9338	0.5309
313.15 K, x2 = 0.0886	0.6235
313.15 K, x2 = 0.2076	0.6053
313.15 K, x2 = 0.3076	0.5896
313.15 K, x2 = 0.4147	0.5741
313.15 K, x2 = 0.5146	0.5604
313.15 K, x2 = 0.6138	0.5458
313.15 K, x2 = 0.715	0.5302
313.15 K, x2 = 0.8146	0.5163
313.15 K, x2 = 0.9338	0.5007

CCc1ccccc1 + Cc1ccccc1
Conditions	viscosity [mPa·s]
293.15 K, 101.33 kPa, x2 = 0.1809	0.652
293.15 K, 101.33 kPa, x2 = 0.3695	0.636
293.15 K, 101.33 kPa, x2 = 0.5187	0.623
293.15 K, 101.33 kPa, x2 = 0.6606	0.611
293.15 K, 101.33 kPa, x2 = 0.8474	0.597
298 K, 101 kPa, x2 = 0.1175	0.6248
298 K, 101 kPa, x2 = 0.2654	0.6174
298 K, 101 kPa, x2 = 0.4661	0.6001
298 K, 101 kPa, x2 = 0.5586	0.5944
298 K, 101 kPa, x2 = 0.6327	0.5864
298 K, 101 kPa, x2 = 0.8164	0.5675
298 K, 101 kPa, x2 = 0.9082	0.5576
298 K, 101 kPa, x2 = 0.9658	0.5598
298.15 K, 101.3 kPa, x2 = 0.1427	0.6196
298.15 K, 101.3 kPa, x2 = 0.2444	0.609
298.15 K, 101.3 kPa, x2 = 0.3777	0.5992
298.15 K, 101.3 kPa, x2 = 0.4928	0.5905
298.15 K, 101.3 kPa, x2 = 0.5425	0.5867
298.15 K, 101.3 kPa, x2 = 0.6355	0.5789
298.15 K, 101.3 kPa, x2 = 0.7353	0.5716
298.15 K, 101.3 kPa, x2 = 0.8573	0.5614
298.15 K, 101.3 kPa, x2 = 0.9453	0.5549
298.15 K, 101.33 kPa, x2 = 0.1308	0.623
298.15 K, 101.33 kPa, x2 = 0.2529	0.616
298.15 K, 101.33 kPa, x2 = 0.3685	0.604
298.15 K, 101.33 kPa, x2 = 0.4784	0.592
298.15 K, 101.33 kPa, x2 = 0.6663	0.58
298.15 K, 101.33 kPa, x2 = 0.8024	0.568
298.15 K, 101.33 kPa, x2 = 0.9209	0.56
303.15 K, 101.3 kPa, x2 = 0.0366	0.5902
303.15 K, 101.3 kPa, x2 = 0.1427	0.5808
303.15 K, 101.3 kPa, x2 = 0.2444	0.5729
303.15 K, 101.3 kPa, x2 = 0.3777	0.5639
303.15 K, 101.3 kPa, x2 = 0.4928	0.5556
303.15 K, 101.3 kPa, x2 = 0.5425	0.5522
303.15 K, 101.3 kPa, x2 = 0.6355	0.545
303.15 K, 101.3 kPa, x2 = 0.7353	0.5371
303.15 K, 101.3 kPa, x2 = 0.8573	0.528
303.15 K, 101.3 kPa, x2 = 0.9453	0.5223
303.15 K, 101.33 kPa, x2 = 0.1809	0.581
303.15 K, 101.33 kPa, x2 = 0.3695	0.565
303.15 K, 101.33 kPa, x2 = 0.5187	0.554
303.15 K, 101.33 kPa, x2 = 0.6606	0.546
303.15 K, 101.33 kPa, x2 = 0.8474	0.533
313.15 K, 101.33 kPa, x2 = 0.1809	0.52
313.15 K, 101.33 kPa, x2 = 0.3695	0.505
313.15 K, 101.33 kPa, x2 = 0.5187	0.496
313.15 K, 101.33 kPa, x2 = 0.6606	0.49
313.15 K, 101.33 kPa, x2 = 0.8474	0.479
323.15 K, 101.33 kPa, x2 = 0.1809	0.46
323.15 K, 101.33 kPa, x2 = 0.3695	0.459
323.15 K, 101.33 kPa, x2 = 0.5187	0.447
323.15 K, 101.33 kPa, x2 = 0.6606	0.443
323.15 K, 101.33 kPa, x2 = 0.8474	0.43

COC(C)(C)C + Cc1ccccc1
298.15 K, 101 kPa
Conditions	viscosity [mPa·s]
x1 = 0.05	0.541
x1 = 0.1	0.528
x1 = 0.2001	0.505
x1 = 0.3002	0.479
x1 = 0.4001	0.458
x1 = 0.5001	0.438
x1 = 0.6001	0.419
x1 = 0.6998	0.398
x1 = 0.8	0.383
x1 = 0.8999	0.372
x1 = 0.9502	0.365
